# According to patent US10808003B2, “Amphipathic molecule based on tandem malonate and use thereof” (Industry-University Cooperation Foundation Hanyang …, priority 2017, dated 2020):
# “Also recorded” adds a separate entry of the source.
# Tests used:
# [1] = molecular target: T1, uric acid-xanthine/H+ symporter (UapA) (Emericella nidulans, UniProt Q07307, G411V); assay: Thermal/structural stability of UapA by CPM fluorescence assay; format: biochemical, Aspergillus nidulans; settings: for ability to conserve UapA transporter in a folded state: 125 minutes at 40° C.
# T1 construct: GFP; made in house; host or cells: Saccharomyces cerevisiae FGY217
# T1 sequence (Q07307 12-574 G411V): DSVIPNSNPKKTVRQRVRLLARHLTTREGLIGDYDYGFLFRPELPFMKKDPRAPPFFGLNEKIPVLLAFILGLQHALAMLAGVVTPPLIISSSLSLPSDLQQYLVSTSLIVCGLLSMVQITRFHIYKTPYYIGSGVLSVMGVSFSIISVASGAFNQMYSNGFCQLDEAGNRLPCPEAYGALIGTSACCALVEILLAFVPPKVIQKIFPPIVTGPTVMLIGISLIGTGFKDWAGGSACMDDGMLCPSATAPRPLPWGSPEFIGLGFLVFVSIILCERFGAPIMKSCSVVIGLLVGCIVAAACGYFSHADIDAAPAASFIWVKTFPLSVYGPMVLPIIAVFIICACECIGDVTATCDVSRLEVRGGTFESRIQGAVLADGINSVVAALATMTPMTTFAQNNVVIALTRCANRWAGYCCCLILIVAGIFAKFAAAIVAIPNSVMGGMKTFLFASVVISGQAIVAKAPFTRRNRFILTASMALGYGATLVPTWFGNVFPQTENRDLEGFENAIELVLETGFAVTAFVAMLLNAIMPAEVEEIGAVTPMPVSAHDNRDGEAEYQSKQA
# Description: An experiment of measuring structural stability of a uric acid-xanthine/H+ symporter (UapA) separated from Aspergillus nidulans by TMG was performed. The structural stability of UapA was evaluated using a sulfhydryl-specific fluorophore and N-[4-(7-diethylamino-4-methyl-3-coumarinyl)phenyl]maleimide (CPM).
# Specifically, UapAG411V1-11 (hereinafter, referred to as “UapA”) expressed as a GFP fusion protein from a Saccharomyces cerevisiae FGY217 strain, and the protein was separated using a sample buffer (20 mM Tris (pH 7.5), 150 mM NaCl, 0.03% DDM, 0.6 mM xanthine) according to a method disclosed in the article written by J. Leung et al. (Mol. Membr. Biol. 2013, 30, 32-42). The protein having a molecular weight of 100 kDa was concentrated to approximately 10 mg/mL using a cut-off filter (Millipore). The protein was diluted with a buffer containing each of the TMG-As (TMG-A11, TMG-A12, TMG-A13 and TMG-A14), TMG-Ts (TMG-T11, TMG-T12, TMG-T13 and TMG-T14), MNG-3 or DDM at a ratio of 1:150 to reach the final concentration of CMC+0.04 wt % or CMC+0.2 wt % in a Greiner 96-well plate. A CPM dye (Invitrogen) stored in DMSO (Sigma) was diluted with a staining buffer (20 mM Tris (pH 7.5), 150 mM NaCl, 0.03% DDM, 5 mM EDTA), and 3 μL of the staining buffer was added to each sample. The reaction mixture was incubated at a constant temperature for 125 minutes at 40° C. Fluorescence emission was recorded using a microplate spectrofluorometer set to each of excitation and emission wavelengths of 387 nm and 463 nm. A relative amount of folded proteins was plotted over time using GraphPad Prism.
# [2] = Critical micelle concentration by fluorescent staining with diphenylhexatriene (DPH); format: physicochemical; settings: aqueous solution
# Description: A method of measuring CMC is not particularly limited, and any method well known in the art, for example, a fluorescent staining method using diphenylhexatriene (DPH) may be used.
# (§1) Specifically, a CMC was measured using fluorescent staining and diphenylhexatriene (DPH), and the hydrodynamic radii (Rh) of micelles formed by each agent (1.0 wt %) were measured by a DLS test. The measured results were compared with those for the conventional amphipathic molecule (detergent), DDM, and thus are shown in Table 1.
# [3] = Hydrodynamic radius of micelles by dynamic light scattering (DLS); format: physicochemical; settings: for Rh (nm), hydrodynamic radius of micelles: micelles formed by each agent at 1.0 wt %; for micelle size and homogeneity in words: 1.0 wt %, FIGS. 5 and 6
# Description: A method of measuring the radius of the micelles is not particularly limited, and any method well known in the art, for example, a DLS test may be used.
# as §1
# [4] = molecular target: T2, human β2 adrenergic receptor (β2AR) (Homo sapiens, UniProt P07550); assay: β2AR stability by [3H]-dihydroalprenolol (DHA) ligand binding assay; format: biochemical; settings: CMC+0.2 wt %; for long-term maintenance of binding between β2AR and ligand: 7-day incubation at room temperature, FIG. 14b; for initial β2AR receptor activity ([3H]-DHA binding): FIG. 14a
# T2 construct: made in house; host or cells: cell membrane
# T2 sequence (P07550 whole entry): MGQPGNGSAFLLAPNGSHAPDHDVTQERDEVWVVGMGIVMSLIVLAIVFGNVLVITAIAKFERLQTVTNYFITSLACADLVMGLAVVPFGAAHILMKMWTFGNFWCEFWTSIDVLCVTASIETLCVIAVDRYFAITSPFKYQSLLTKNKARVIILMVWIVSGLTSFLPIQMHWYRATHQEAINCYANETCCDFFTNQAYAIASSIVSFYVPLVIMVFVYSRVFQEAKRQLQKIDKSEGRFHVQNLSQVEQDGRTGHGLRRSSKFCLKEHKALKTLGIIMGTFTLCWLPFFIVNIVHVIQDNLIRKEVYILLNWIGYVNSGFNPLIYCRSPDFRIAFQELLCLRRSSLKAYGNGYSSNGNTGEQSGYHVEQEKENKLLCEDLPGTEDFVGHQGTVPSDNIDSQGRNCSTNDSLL
# Description: Experiments for measuring stability of a human β2 adrenergic receptor (β2AR) and a G-protein-coupled receptor (GPCR) by TMGs were performed. A receptor was extracted from a cell membrane using 1% DDM and purified with a 0.1% amphipathic molecule. The receptor purified with the DDM was diluted with a buffer solution containing DDM or TMGs to adjust the final concentration of the compound to CMC+0.2 wt %. β2AR solubilized by each amphipathic molecule was stored for 7 days at room temperature, and the sample was incubated with 10 nM [^3H]-dihydroalprenolol (DHA) supplemented with 0.5 mg/ml BSA for 30 minutes at room temperature to evaluate a ligand-binding ability at regular intervals during the experimental period. The mixture was loaded onto a G-50 column, and a liquid running through the column was collected using 1 ml of a binding buffer (20 mM HEPES containing 0.5 mg/ml BSA and 20×CMC of each amphipathic molecule, pH 7.5, 100 mM NaCl). In addition, 15 ml of a scintillation fluid was added, and receptor-bound [^3H]-DHA was measured using a scintillation counter (Beckman). A binding degree of the [^3H]-DHA was shown by a column graph (FIG. 14). The experiment was repeated three times.
# [5] = test system: LeuT (leucine transporter); assay: LeuT stability by [3H]-Leu substrate binding, scintillation proximity assay (SPA); format: biochemical, Aquifex aeolicus; settings: for substrate-binding ability of LeuT: TMGs or DDM at CMC+0.04 wt %, 10 days at room temperature; for activity of LeuT after incubation, relative to DDM: CMC+0.04 wt %, after incubation at room temperature, FIG. 13a
# Description: An experiment of measuring LeuT protein stability for TMGs and TMMs was performed. (a) CMC+0.04 wt % or (b) CMC+0.2 wt % of each amphipathic molecule was used, and the evaluation of the LeuT protein stability was performed by taking an advantage of a characteristic of LeuT binding to a substrate through a scintillation proximity assay (SPA) using [^3H]-Leu. […]
# Specifically, wild type LeuT (leucine transporter) derived from a thermophilic bacterium, Aquifex aeolicus, was purified by a previously-disclosed method (G. Deckert et al., Nature 1998, 392, 353-358). LeuT was expressed in E. coli C41 (DE3) transformed with pET16b encoding a C-terminus 8×His-tagged transporter (the expression plasmid was provided by Dr E. Gouaux, Vollum Institute, Portland, Oreg., USA). In summary, following isolation of a bacterial membrane and lysis with 1% (w/v) DDM, the protein was allowed to bind to a Ni^2+-NTA resin (Life Technologies, Denmark), and eluted in 20 mM Tris-HCl (pH 8.0), 1 mM NaCl, 199 mM KCl, 0.05% (w/v) DDM and 300 mM imidazole. Afterward, the purified LeuT (approximately 1.5 mg/ml) was diluted with the same buffer used above, from which DDM and imidazole were removed, and then supplemented with TMGs or DDM at the final concentration of CMC+0.04% (w/v). […] SPA was performed using a buffer containing 450 mM NaCl and each of the TMGs and TMMs at the predetermined concentration. The SPA reaction is performed in the presence of 20 nM [^3H]-Leucine and 1.25 mg/ml copper chelate (His-Tag) YSi beads (Perkin Elmer, Denmark). A total [^3H]-Leucine binding degree of each sample was measured using a MicroBeta liquid scintillation counter (Perkin Elmer).
Compound,"ability to maintain the UapA transporter structure, comparison with MNG-3 and DDM ([1]; concentration not given)",CMC [2] [mM],CMC (wt %) [2] [wt %],"Rh (nm), hydrodynamic radius of micelles [3] [nm]","ability to conserve UapA transporter in a folded state ([1]; CMC+0.04 wt %, FIG. 9)","ability to conserve UapA transporter in a folded state ([1]; CMC+0.2 wt %, FIG. 10)",long-term maintenance of binding between β2AR and ligand [4],initial β2AR receptor activity ([3H]-DHA binding) [4],substrate-binding ability of LeuT [5],micelle size and homogeneity in words [3],"activity of LeuT after incubation, relative to DDM [5]"
"CCCCCCCCCCC(CCCCCCCCCC)(CO[C@@H]1O[C@H](CO)[C@@H](O[C@H]2O[C@H](CO)[C@@H](O)[C@H](O)[C@H]2O)[C@H](O)[C@H]1O)CO[C@@H]1O[C@H](CO)[C@@H](O[C@H]2O[C@H](CO)[C@@H](O)[C@H](O)[C@H]2O)[C@H](O)[C@H]1O [MNG-3, reference compound]",a little superior to DDM,,,,,,,,,,
CCCCCCCCCCCC(CCCC(CCCCCCCCCCC)(CO[C@@H]1OC(CO)[C@@H](O)C(O)C1O)CO[C@@H]1OC(CO)[C@@H](O)C(O)C1O)(CO[C@@H]1OC(CO)[C@@H](O)C(O)C1O)CO[C@@H]1OC(CO)[C@@H](O)C(O)C1O (stereo partly drawn) [TMG-A11],,~0.015,~0.0017,3.1 ± 0.15,the least excellent in transporter stability,"the least effective, and had lower stability than DDM",,,,,
CCCCCCCCCCCCCC(CCCC(CCCCCCCCCCCCC)(CO[C@@H]1OC(CO)[C@@H](O)C(O)C1O)CO[C@@H]1OC(CO)[C@@H](O)C(O)C1O)(CO[C@@H]1OC(CO)[C@@H](O)C(O)C1O)CO[C@@H]1OC(CO)[C@@H](O)C(O)C1O (stereo partly drawn) [TMG-A13],,~0.006,~0.0007,3.6 ± 0.16,,excellent effect of stabilizing transporter folding,superior to DDM in terms of long-term maintenance of binding between the receptor and the ligand,as effective as DDM,,,
CCCCCCCCCCCCCCC(CCCC(CCCCCCCCCCCCCC)(CO[C@@H]1OC(CO)[C@@H](O)C(O)C1O)CO[C@@H]1OC(CO)[C@@H](O)C(O)C1O)(CO[C@@H]1OC(CO)[C@@H](O)C(O)C1O)CO[C@@H]1OC(CO)[C@@H](O)C(O)C1O (stereo partly drawn) [TMG-A14],,~0.004,~0.0005,3.8 ± 0.10,,excellent effect of stabilizing transporter folding,superior to DDM in terms of long-term maintenance of binding between the receptor and the ligand,,,,
CCCCCCCCCCCOCC(CO[C@@H]1OC(CO)[C@@H](O)C(O)C1O)(CO[C@@H]1OC(CO)[C@@H](O)C(O)C1O)CSCC(COCCCCCCCCCCC)(CO[C@@H]1OC(CO)[C@@H](O)C(O)C1O)CO[C@@H]1OC(CO)[C@@H](O)C(O)C1O (stereo partly drawn) [TMG-T11],,~0.020,~0.0025,3.0 ± 0.07,,"the least effective, and had lower stability than DDM",,,a better characteristic than DDM,,
CCCCCCCCCCCCCOCC(CO[C@@H]1OC(CO)[C@@H](O)C(O)C1O)(CO[C@@H]1OC(CO)[C@@H](O)C(O)C1O)CSCC(COCCCCCCCCCCCCC)(CO[C@@H]1OC(CO)[C@@H](O)C(O)C1O)CO[C@@H]1OC(CO)[C@@H](O)C(O)C1O (stereo partly drawn) [TMG-T13],,~0.006,~0.0008,3.3 ± 0.08,,excellent effect of stabilizing transporter folding,superior to DDM in terms of long-term maintenance of binding between the receptor and the ligand,as effective as DDM,a better characteristic than DDM,,
CCCCCCCCCCCCCCOCC(CO[C@@H]1OC(CO)[C@@H](O)C(O)C1O)(CO[C@@H]1OC(CO)[C@@H](O)C(O)C1O)CSCC(COCCCCCCCCCCCCCC)(CO[C@@H]1OC(CO)[C@@H](O)C(O)C1O)CO[C@@H]1OC(CO)[C@@H](O)C(O)C1O (stereo partly drawn) [TMG-T14],,~0.004,~0.0005,3.8 ± 0.09,,excellent effect of stabilizing transporter folding,superior to DDM in terms of long-term maintenance of binding between the receptor and the ligand; also recorded: most excellent in maintenance of binding between a receptor and a ligand,,a better characteristic than DDM,,
CC1CCC2(OC1)OC1CC3C4CC=C5CC(OCC(CO[C@@H]6OC(CO)[C@@H](O[C@H]7OC(CO)[C@@H](O)C(O)C7O)C(O)C6O)(CO[C@@H]6OC(CO)[C@@H](O[C@H]7OC(CO)[C@@H](O)C(O)C7O)C(O)C6O)CSCC(COC6CCC7(C)C(=CCC8C7CCC7(C)C8CC8OC9(CCC(C)CO9)C(C)C87)C6)(CO[C@@H]6OC(CO)[C@@H](O[C@H]7OC(CO)[C@@H](O)C(O)C7O)C(O)C6O)CO[C@@H]6OC(CO)[C@@H](O[C@H]7OC(CO)[C@@H](O)C(O)C7O)C(O)C6O)CCC5(C)C4CCC3(C)C1C2C (stereo partly drawn) [TMM-D27],,~0.010,~0.0024,3.1 ± 0.07,,,,,,relatively small micelles,protein activity similar to DDM
CC(C)CCC[C@@H](C)C1CCC2C3CC=C4CC(OCC(CO[C@@H]5OC(CO)[C@@H](O[C@H]6OC(CO)[C@@H](O)C(O)C6O)C(O)C5O)(CO[C@@H]5OC(CO)[C@@H](O[C@H]6OC(CO)[C@@H](O)C(O)C6O)C(O)C5O)CSCC(COC5CCC6(C)C(=CCC7C6CCC6(C)C7CCC6[C@H](C)CCCC(C)C)C5)(CO[C@@H]5OC(CO)[C@@H](O[C@H]6OC(CO)[C@@H](O)C(O)C6O)C(O)C5O)CO[C@@H]5OC(CO)[C@@H](O[C@H]6OC(CO)[C@@H](O)C(O)C6O)C(O)C5O)CCC4(C)C3CCC21C (stereo partly drawn) [TMM-E27],,~0.008,~0.00018,4.7 ± 0.10,,,,,,large,protein activity similar to DDM
